Assay results published in patent US10351500B2, “Method of using of dihydro-resveratrol or its stilbenoid derivatives and/or chemical variants as antimicrobial agents” (Hong Kong Baptist University, priority 2015, dated 2019).

Assays:
[1] = ABTS radical decolorization assay (antioxidant capacity); format: biochemical; settings: 15 min, 734 nm
[2] = test system: human colorectal carcinoma HCT-116 cell line; assay: MTT cell viability assay, HCT-116; format: cell-based; settings: HCT-116 colorectal carcinoma, 24 h
Method: The human colorectal carcinoma HCT-116 cell line, human pancreatic ductal adenocarcinoma PANC-1 cell line, human melanoma A375 cell line and human embryonic kidney HEK293 cell line were purchased from the American Type Culture Collection. Cells were cultured in high glucose DMEM growth medium supplemented with 10% fetal bovine serum, penicillin and streptomycin (100 U) in a humidified atmosphere of 5% CO2, 95% air at 37° C. Upon the addition of dihydro-resveratrol (D-res) to the HCT-116, PANC-1, A375 or HEK293 cells seeded at a density of 8000 cells per well in a 96-well plate format, the viability of the testing cells was determined 24 h post treatment using the (3-(4,5-dimethylthiazol-2-yl)-2,5-diphenyltetrazolium bromide) tetrazolium (MTT) reduction assay and expressed as growth inhibition of 50% (GI50, Table 6).

[3] = test system: cerulein-induced chronic pancreatitis; assay: cerulein-induced chronic pancreatitis in mice, oral treatment; format: in vivo, C57/BL6 mice
Method: Evaluation of biological activities. C57/BL6 mice aged 28 days weighing in the range of 20 to 25 g were randomly assigned into 4 groups of 6 to 8 individuals. The mice were housed with an ambient temperature of 23±2° C., a relative humidity of 60 to 80% and a 12-h light/dark cycle. Prior to the glucose tolerance test, the mice were starved overnight but allowed with free access to water. Experimental chronic pancreatitis was induced in the mice by four hourly i.p. injections of cerulein at the supramaximally stimulating dose (50 μg/kg) a day, 3 days a week, in a total of 6 weeks. The control group received injections of 0.9% saline instead of cerulein in the same volume and at same time intervals. The treatment groups given with cerulein and oral doses of dihydro-resveratrol (20 mg/kg/day) were designated as Cer+D-res. […] Thus, it concludes that an effective dosage of dihydro-resveratrol is at least 20 mg/kg/day. […] At the end of the 6-week experiment, mice were subjected to the intraperitoneal glucose tolerance test (IPGTT). Mice had been starved for 14 hours prior to the IPGTT, in which a 15% (w/v) glucose solution was injected to individual animals at 1.5 g glucose per kg body weight. About 1 μL of blood will be obtained from the tail vein, and blood glucose levels were monitored 30 min before (i.e. fasting level) and 10, 20, 30 and 60 min after glucose injection using a glucometer (Medisign, Korea). Upon scarification, pancreases were immediately removed, weighed, trimmed from fat and fixed in 4% paraformaldehyde-phosphate buffered saline overnight at 4° C. Samples were then processed, embedded in paraffin wax, sectioned and subjected to immunostaining.

Streptococcus mutans = assay: anti-bacterial growth inhibition, S. mutans; format: cell-based; settings: Streptococcus mutans, 10 h
Method: Evaluation of anti-bacterial activity. In a single well of the 96-well microplate, 10 μL of the testing compound is added into 190 μL of growth medium growth medium (BBL™ Brain Heart Infusion) containing an overnight culture of Streptococcus mutans or Streptococcus sobrinus at a density of approximately 5×10^5 CFU. The testing compounds include dihydro-resveratrol and DR1 to DR11. Wells incubated with 10 μL 0.5% DMSO only (i.e. no testing compound) are served as the experimental control of bacterial growth whilst those incubated with growth medium only (i.e. no bacteria) are served as the negative control. […] The percentage of growth inhibition of S. mutans by the different concentrations of testing compounds is shown in Table 12 whereas the percentage of growth inhibition of S. sobrinus is shown in Table 13. The images of S. mutans culture are captured post treatment of dihydro-resveratrol (100 μM) and DR8 (100 μM) when compared to the growth of experimental control and negative control (FIG. 31).

Trichophyton rubrum = assay: anti-fungal growth inhibition, T. rubrum; format: cell-based; settings: Trichophyton rubrum, 168 h
Method: Evaluation of anti-fungal activity. In a single well of the 96-well microplate, 10 μL of the testing compound is added into 190 μL of growth medium (Difco™ YM) containing an overnight culture of Trichophyton rubrum or Trichophyton mentagrophytes at a density of approximately 5×10^5 CFU. The testing compounds include dihydro-resveratrol and DR1 to DR11. Wells incubated with 10 μL 0.5% DMSO only (i.e. no testing compound) are served as the experimental control of fungal growth whilst those incubated with growth medium only (i.e. no fungi) are served as the negative control. […] The percentage of growth inhibition of T. mentagrophytes by the different concentrations of testing compounds is shown in Table 10 whilst the percentage of growth inhibition of T. rubrum is shown in Table 11. The images of T. mentagrophytes culture are captured post treatment of dihydro-resveratrol (100 μM) and DR8 (100 μM) when compared to the growth of experimental control and negative control (FIG. 30).

[4] = read-out: Inhibition rate (25 μM)
[5] = read-out: Inhibition rate (50 μM)
[6] = read-out: Inhibition rate (100 μM)

Oc1ccc(CCc2cc(O)cc(O)c2)cc1 [Dihydro-resveratrol, trans-3,5,4′-trihydroxybibenzyl]
Trolox equivalent (mg), antioxidant capacity [1]: 4969.611 mg
GI50 [2]: 102 ± 5.21 µM
fibrosis formation, 50 mg/kg/day versus 20 mg/kg/day [3]: no statistically significant difference
pancreatic beta-cell area (insulin immunofluorescence) ([3]; 20 mg/kg/day oral): restoration of beta-cell area
FN1 deposition in pancreatic parenchyma ([3]; 20 mg/kg/day oral, 3 weeks): reduces such deposition
impaired glucose tolerance (IPGTT) ([3]; 20 mg/kg/day oral, 3 weeks): significantly rectified
adverse effect ([3]; 50 mg/kg/day): no adverse effect
inhibition at 25 µM (Streptococcus mutans; [4]): 6.32%
inhibition at 50 µM (Streptococcus mutans; [5]): 2.34%
inhibition at 100 µM (Streptococcus mutans; [6]): 2.09%
inhibition at 25 µM (Trichophyton rubrum; [4]): 2.75%
inhibition at 50 µM (Trichophyton rubrum; [5]): 6.84%
inhibition at 100 µM (Trichophyton rubrum; [6]): 22.5%
